# Assay results reported in PMC8618356, “Optimization, Characterization and Pharmacokinetic Study of Meso-Tetraphenylporphyrin Metal Complex-Loaded PLGA Nanoparticles” (International Journal of Molecular Sciences, 2021).
# Like-named read-outs stand apart in the source and are kept apart here.
# Columns and labels:
# [1] = tested on: HeLa, MCF-7, and SK-OV-3 cells; assay: Cytotoxicity, MTT assay; assay type: cell-based, human; conditions: all examined cell lines, 72 h
# Experimental: The cancer cell lines HeLa (human cervical carcinoma), MCF-7 (human breast adenocarcinoma), and SK-OV-3 (human ovarian carcinoma) were purchased from the American Type Culture Collection (ATCC, Manassas, VA, USA). Cells were maintained in DMEM medium supplemented with 10% fetal bovine serum and gentamycin (50 μg/mL). Cells were maintained in plastic 25 cm^2 cell culture flasks at 37 °C in a humidified atmosphere containing 5% CO2. HeLa, MCF-7, and SK-OV-3 cells were plated before reaching 80% confluence using trypsin/EDTA solution.
# MCF-7, SK-OV-3, and HeLa cells were plated in 96-well plates (5000 cells per well) one day before the experiment and incubated under standard conditions. MeP and MeP-NPs were added in triplets in the concentration range 0.125–100 μM (according to the MeP concentration) and incubated for 2 h. To determine cytotoxicity, cells were treated with AA alone or in combination with MeP in a molar ratio of 1:20 to MeP and then incubated for 72 h. Cell survival was determined using the standard MTT assay. Cell viability was determined as the percent of untreated control. Mean survival values were calculated in Excel (Microsoft Corporation, Redmond, Washington, DC, USA)) and data visualization was performed in OriginPro (version 2020b, OriginLab Corp., Northampton, MA, USA).
# [2] = MeP loading content and encapsulation efficiency of PLGA NPs (spectrophotometry); assay type: physicochemical; conditions: optimized MeP-loaded PLGA NPs; for MeP loading content (LC): observed data
# Experimental: EE and LC calculation is a critical stage in NP analysis, evaluating the MeP amount in NPs’ core. The EE of MeP was determined by dissolving 4 mg of NPs in 4 mL of distilled water followed by centrifugation at 5000× g for 3 min and subsequent lyophilization. The optical density of the sediment and supernatant was assessed at 465 nm for MnClTPP, 433 nm for NiTPP, and 428 nm for CoTPP. The entrapment efficiency of MeP (EE) was calculated according to Equation (9):(9) EE (%)=The mass of MeP in the nanoparticles, mg/The mass of the nanoparticles weight, mg ∗100%
# MeP LC corresponded to the optical density of 4 mg of lyophilized NPs in 4 mL of DMSO. Subsequent absorption analysis was performed as indicated earlier and LC calculated according to the following Equation (10): (10) LC (%) = Absorbance∗VDMSO/ε∗msample∗100% where VDMSO is the total volume of suspension containing NPs (L), ε is the extinction coefficient of MeP in DMSO (ε = 116,280 M^−1 cm^−1 for MnClTPP, ε = 36,797 M^−1 cm^−1 for NiTPP, ε = 87,448 M^−1 cm^−1 for CoTPP), and msample is the NPs mass (g).
# [3] = In vitro release study of MeP-loaded NPs in PBS pH 7.4 with 0.1% Tween 80; assay type: physicochemical; conditions: for release rate constant kк (Korsmeyer–Peppas model) / release exponent n (Korsmeyer–Peppas model): MeP release from MeP-loaded PLGA NPs; for release rate constant kк (Korsmeyer–Peppas model): PBS pH 7.4, 0.1% Tween 80, 37 °C; for release exponent n (Korsmeyer–Peppas model): less than 0.43 = Fickian diffusion; for duration of the fast (rapid) release phase: biphasic release from MeP-loaded NPs
# Description: We analyzed the release according to the method of Abouelmag et al. using a phosphate-buffered saline (PBS) pH 7.4 containing 0.1% Tween 80 (Figure 8) as a release medium.
# We determined the MeP release mechanisms by fitting the data obtained by applying several release kinetic models (Table 7). […] The release exponent values were n = 0.01 for NiTPP, n = 0.06 for CoTPP, and n = 0.11 for MnClTPP, and less than 0.43, indicating Fickian diffusion of MeP [92].
# The time-dependent release of MeP was analyzed by dissolving 3 mg of NPs in 1 mL of PBS (0.01 M, pH 7.4) and incubation in a dark glass bottle containing 40 mL of PBS (0.01 M, pH 7.4) and 0.1% (w/v) Tween 80 solution. The probes were kept on a shaker incubator at 90 rpm and 37 °C. Aliquots of 1 mL of media were taken at 0, 0.25, 0.5, 0.75, 1, 1.5, 2, 3, 4, 24, 48, 72, 120, 144, and 192 h and replenished with 1 mL of fresh PBS. The collected aliquots were centrifuged for 3 min at 5000× g at 37 °C. The supernatants were removed and lyophilized as well as the sediments. The amount of MeP released at each time point was calculated as described above according to optical absorption.
# BALB/c female mice = assay: Acute toxicity analysis; assay type: in vivo; conditions: i.v. tail vein, 24 h
# Experimental: All experimental procedures with animals (mice and rats) were performed according to the University Ethics Committee for the use of experimental animals and animal studies were carried out as per the guidelines of the European Medicines Agency, Amsterdam, the Netherlands.
# MeP and MeP-NP acute toxicity analysis was accomplished using randomly divided mice groups (n = 3). The samples were diluted in PBS and injected (200 μL) via the lateral tail vein. Due to poor water solubility, MePs were preliminarily dissolved in DMSO and Tween 80: the final solution represented 5% v/v DMSO and 2% Tween 80 v/v in PBS. Survival was registered for 24 h after injection.
# [4] = rat, in vivo, iv
# Experimental: The MeP and MeP-NPs were administered via the lateral tail vein at tahe dose of 12.5 (NiTPP, CoTPP, and corresponding NPs at the equivalent dose) and 6.3 mg/kg (MnClTPP and MnClTPP-NPs at the equivalent dose).
# Female Wistar rats (body weight 220–240 g) were supplied by Stolbovaya animal facility (Branch of the Scientific Center of Biomedical Technologies of the Federal Medical Biological Agency (Moscow, Russia)). The animals were kept under controlled conditions (temperature of 22 ± 2 °C and relative humidity of 50 ± 10%) with free access to water and standard pellet feed.
# The MeP and MeP-NPs pharmacokinetics study was accomplished using randomly divided rat groups (n = 3). Blood samples (50 μL) were collected before injection and after at different time points: 0.25, 0.50, 1.0, 3.0, 6.0, 24.0, and 48.0 h. The blood samples were diluted to 1.0 mL and analyzed with ICP-MS (Agilent 7500C, Agilent Technologies, Tokyo, Japan) [112]. The sample introduction system consisted of a robust Babington nebulizer with a Scott spray chamber (Agilent Technologies, Tokyo, Japan) cooled by a Peltier element (2 °C). The data were acquired and processed with the ICP-MS ChemStation (Agilent Technologies, version G1834B; Santa Clara, CA, USA) software package. The internal standard method was applied in order to take into account the effect of the matrix; Rh was used as internal standard. For dilution of the whole blood samples and standard solution, the mixture of 0.1% Triton X-100–1% HNO3 was used. The same solution was used as the mobile phase of the mass spectrometer.
# The pharmacokinetic parameters of MeP were estimated using standard non-compartmental methods [113]. The volume of distribution (Vd), mean residence time (MRT), elimination half-life (t1/2), and area under the plasma concentration–time curve from 0 h to infinity (AUCinf) were determined after intravenous administration of MeP-loaded NPs to animals. All calculations were performed using the PKSolver add-in program for Microsoft Excel [114].
# [5] = In vitro release study of MeP-loaded NPs in PBS pH 7.4 with 0.1% Tween 80; assay type: physicochemical; conditions: after 180 h
smiles,measurement,setting,value
"O=C1O[C@H]([C@@H](O)CO)C(O)=C1O [AA, ascorbic acid]","cytotoxicity alone, without combination (in words)",[1],lacked cell growth inhibition
C1=Cc2nc1c(-c1ccccc1)c1ccc([n-]1)c(-c1ccccc1)c1nc(c(-c3ccccc3)c3ccc([n-]3)c2-c2ccccc2)C=C1.[Co+2] [CoTPP],encapsulation efficiency (EE),[2],79.7%
same,MeP loading content (LC),[2],8.7%
same,release rate constant kк (Korsmeyer–Peppas model),[3],74.3 h⁻¹
same,release exponent n (Korsmeyer–Peppas model),[3],0.06
same,duration of the fast (rapid) release phase,[3],30 min
same,Mice Survived,BALB/c female mice; 6.25 mg/kg,3/3
same,Mice Survived,BALB/c female mice; 12.5 mg/kg,3/3
same,Mice Survived,BALB/c female mice; 25 mg/kg,2/3
same,Mice Survived,BALB/c female mice; 50 mg/kg,0/3
same,AUCinf,[4]; 12.5 mg/kg,"60,370 ± 18,111 (µg/mL) (h)"
same,MRT,[4]; 12.5 mg/kg,27 ± 7 h
same,Vd,[4]; 12.5 mg/kg,0.003 ± 0.001 L/kg
same,t1/2,[4]; 12.5 mg/kg,17 ± 4 h
"C1=Cc2nc1c(-c1ccccc1)c1ccc([n-]1)c(-c1ccccc1)c1nc(c(-c3ccccc3)c3ccc([n-]3)c2-c2ccccc2)C=C1.[Cl-].[Mn+3] [MnClTPP, MnCl3-tetraphenylporphyrin chloride]",encapsulation efficiency (EE),[2],79.9%
same,MeP loading content (LC),[2],28.9%
same,MeP released from NPs,[5],80%
same,release rate constant kк (Korsmeyer–Peppas model),[3],49.4 h⁻¹
same,release exponent n (Korsmeyer–Peppas model),[3],0.11
same,duration of the fast (rapid) release phase,[3],15 min
same,Mice Survived,BALB/c female mice; 6.25 mg/kg,3/3
same,Mice Survived,BALB/c female mice; 12.5 mg/kg,3/3
same,Mice Survived,BALB/c female mice; 25 mg/kg,3/3
same,Mice Survived,BALB/c female mice; 50 mg/kg,2/3
same,AUCinf,[4]; 6.3 mg/kg,"15,362 ± 5377 (µg/mL) (h)"
same,MRT,[4]; 6.3 mg/kg,62 ± 21 h
same,Vd,[4]; 6.3 mg/kg,0.013 ± 0.004 L/kg
same,t1/2,[4]; 6.3 mg/kg,44 ± 14 h
C1=Cc2nc1c(-c1ccccc1)c1ccc([n-]1)c(-c1ccccc1)c1nc(c(-c3ccccc3)c3ccc([n-]3)c2-c2ccccc2)C=C1.[Ni+2] [NiTPP],MeP loading content (LC),[2],11.1%
same,release rate constant kк (Korsmeyer–Peppas model),[3],91.3 h⁻¹
same,release exponent n (Korsmeyer–Peppas model),[3],0.01
same,duration of the fast (rapid) release phase,[3],30 min
same,Mice Survived,BALB/c female mice; 6.25 mg/kg,3/3
same,Mice Survived,BALB/c female mice; 12.5 mg/kg,3/3
same,Mice Survived,BALB/c female mice; 25 mg/kg,1/3
same,Mice Survived,BALB/c female mice; 50 mg/kg,0/3
same,AUCinf,[4]; 12.5 mg/kg,612 ± 184 (µg/mL) (h)
same,MRT,[4]; 12.5 mg/kg,25 ± 6 h
same,Vd,[4]; 12.5 mg/kg,2.683 ± 0.805 L/kg
same,t1/2,[4]; 12.5 mg/kg,19 ± 6 h
